Results: patent publication US20240131022A1 (published 2024)

Legend:
[1] = biological target: μ-receptor (Homo sapiens, UniProt P35372); experiment: cell-based
[2] = biological target: k-receptor (Homo sapiens, UniProt P41145); experiment: cell-based; settings: read-out: k-receptor activation (IC50 or %)
[3] = biological target: δ-receptor (Homo sapiens, UniProt P41143); experiment: Functional profile in CHO transfected cells, δ-receptor inhibition; type: cell-based
[4] = Stability in brain homogenate; settings: within the time frame of the study

δ-receptor, sequence (P41143 whole entry): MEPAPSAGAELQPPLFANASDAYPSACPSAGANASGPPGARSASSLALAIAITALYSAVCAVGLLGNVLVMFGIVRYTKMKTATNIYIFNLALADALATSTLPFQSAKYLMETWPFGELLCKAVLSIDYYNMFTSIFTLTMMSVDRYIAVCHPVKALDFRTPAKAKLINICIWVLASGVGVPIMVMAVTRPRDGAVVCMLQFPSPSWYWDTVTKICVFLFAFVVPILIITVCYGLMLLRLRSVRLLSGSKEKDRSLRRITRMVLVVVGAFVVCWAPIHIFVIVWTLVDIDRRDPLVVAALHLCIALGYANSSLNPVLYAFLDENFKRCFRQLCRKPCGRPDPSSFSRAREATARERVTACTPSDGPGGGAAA
μ-receptor, sequence (P35372 whole entry): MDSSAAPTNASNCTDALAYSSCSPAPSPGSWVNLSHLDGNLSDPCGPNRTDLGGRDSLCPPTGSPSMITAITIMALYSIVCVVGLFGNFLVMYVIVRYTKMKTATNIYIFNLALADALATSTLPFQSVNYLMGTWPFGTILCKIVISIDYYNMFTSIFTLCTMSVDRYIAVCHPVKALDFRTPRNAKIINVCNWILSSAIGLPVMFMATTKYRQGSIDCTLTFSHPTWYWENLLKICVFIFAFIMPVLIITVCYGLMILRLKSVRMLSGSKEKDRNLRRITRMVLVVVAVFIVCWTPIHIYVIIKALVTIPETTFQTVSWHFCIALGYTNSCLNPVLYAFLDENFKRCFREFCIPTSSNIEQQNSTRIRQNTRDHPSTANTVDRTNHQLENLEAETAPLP
k-receptor, sequence (P41145 whole entry): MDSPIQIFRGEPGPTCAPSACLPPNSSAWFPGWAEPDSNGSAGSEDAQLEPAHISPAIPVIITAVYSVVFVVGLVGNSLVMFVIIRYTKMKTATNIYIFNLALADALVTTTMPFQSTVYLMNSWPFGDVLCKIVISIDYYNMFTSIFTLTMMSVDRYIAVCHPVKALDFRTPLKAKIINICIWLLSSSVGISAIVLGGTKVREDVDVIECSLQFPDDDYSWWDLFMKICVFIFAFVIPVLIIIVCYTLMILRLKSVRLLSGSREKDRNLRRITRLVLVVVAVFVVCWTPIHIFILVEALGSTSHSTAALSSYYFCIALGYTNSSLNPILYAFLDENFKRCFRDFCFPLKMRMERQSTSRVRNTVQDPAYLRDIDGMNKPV

Row | Compound | inhibition at 1 µM ([1]; read-out: μ-receptor inhibition (IC50 or %)) | activation at 1 µM [2] | IC50 [3] | intact in brain homogenate [4] | IC50 [1]
1 | C/C=C/C=C/C(=O)Oc1ccc2c3c1OC1C(O)CCC4(O)C(C2)N(CC2CCC2)CCC314 (stereo not shown) [NB33, 3-hexadienoate derivative of nalbuphine] | 82.8% | 22.3% | > 10 µM | 65±6% | 
2 | C=CCN1CCC23c4c5ccc(OC(=O)/C=C/C=C/C)c4OC2C(=O)CCC3(O)C1C5 (stereo not shown) [NX90, 3-hexadienoate derivative of naloxone] |  |  | > 10 µM | 85±13% | 137 ± 12 nM
